The source of these data is patent publication US20170095505A1, “COMBINATION OF XENON AND AN ANTIOXIDANT TO CONTROL A PARKINSON'S DISEASE-TYPE NEURODEGENERATIVE DISEASE” (L'Air Liquide, Société Anonyme pour I'Etude et …, priority 2014, published 2017).

In this assay the test system is TH-positive (dopaminergic) neurons of mesencephalon cultures. The assay is described as follows: Survival of TH-positive dopaminergic neurons in rat mesencephalon primary cultures, degeneration by chronic treatment with PDC, under controlled gaseous atmosphere. The class given is cell-based. More on the design: key to Survival of TH-positive neurons: a favorable response, synonymous with a decrease in the level of neuronal cell death in the presence of the treatments of interest, is denoted by a “+”, “++”, or “+++” sign (+++ = level of reference); a favorable response, synonymous with a decrease in the level of neuronal cell death in the presence of the treatments of interest, is denoted by a “+”, “++”, or “+++” sign; a favorable response, synonymous with a decrease in the level of neuronal cell death in the presence of the treatments of interest, is denoted by a “+”, “++”, or “+++” sign; an unfavorable response is represented by a “−” sign, synonymous with an increase in the neuronal death. Particulars: for Survival of TH-positive neurons: D13-D16, analyzed D16; for survival rate of dopaminergic neuronal cells: % of cultures not treated with PDC under 75% nitrogen. On the procedure: Cultures are prepared from mesencephalon of rat embryos, taken from gestating female Wistar rats on day 15.5 of gestation. The method for obtaining the mesencephalon cultures comprises obtaining a homogeneous cell suspension via mechanical dissociation, i.e. non-enzymatic dissociation, of the embryonic tissue, using Leibovitz L15 medium (Sigma Aldrich). Aliquots of this suspension are added to Nunc 48-well plates, which were precoated with a thin layer of polyethyleneimine (1 mg/ml, borate buffer, pH 8.3) so as to enable the adhesion of the neuronal cells (cf. Toulorge et al., Faseb J, 2011). The seeding density is between approximately 80 000 and 100 000 cells/cm^2. The mesencephalon cultures are maintained in neurobasal culture medium, containing a B27 cocktail without antioxidant, N2 supplement, glutamine (2 mM) and a penicillin/streptomycin cocktail ([…] al., J Neurochem, 2008). The medium and supplements thereof are available from Life Technologies. Up to the time when the effects of the gases of interest are evaluated, the cultures are placed in a conventional enclosure thermostatically controlled at 37° C., in which the CO2 is maintained at 5% by volume and wherein the atmosphere is saturated with water. No change of culture medium is carried out throughout the culture period. Pharmacological Treatments of the Cultures p The degenerative process is triggered by applying a glutamate reuptake system blocker, L-trans-pyrrolidine-2,4-dicarboxylic acid or PDC (Zuiderwijk et al., Europ J Pharmacol, 1994). The antioxidant, namely Trolox, is added to the cultures before the application of PDC. Once the pharmacological treatments have been carried out, the multiwell plates containing the cells in culture and the plate used to humidify the internal compartment of the chamber are placed on a metal base which receives the Plexiglas incubation chamber. The two parts (base and Plexiglas chamber) are butt-joined together by screwing. A gas mixture of interest comprising (% by volume): 20% of O2, 5% of CO2 and 75% of the gas tested is then injected into the incubation chamber, with open inlet and outlet valves, while at the same time controlling the output flow rate by means of a flow meter. The gases tested are nitrogen and xenon. The reference output flow rate, set for air at 10 liters/min, is corrected according to the density of the mixture used. When the CO2 measurement reaches 5% at the outlet, the injection of the gas mixture is stopped and the chamber is made totally airtight by closing the inlet and outlet valves. The exposure chamber is then placed in an enclosure at 37° C. throughout the experimental protocol. After breaking the […] by opening the inlet and outlet valves and unscrewing the chamber from its base, the cultures are fixed with 4% formaldehyde in PBS for 12 min and then incubated at 4° C. with an anti-TH monoclonal antibody (dilution 1/5000) for 2 days. […] The image acquisition is carried out with an infrared imager of Odyssey type (Li-COR Biosciences) and the quantification of the neurons is carried out by means of the ICY software (Institut Pasteur). The results recorded on the figure appended hereto illustrate the synergistic protective effects of xenon and of Trolox in a cell model mimicking chronic Parkinsonian degeneration. […] The cultures are then recovered for fixing and analysis. The neuronal survival is quantified under the various experimental conditions tested, by counting the number of cell bodies immunopositive for the dopaminergic marker TH. The results are expressed in % (±SEM) of the mean values of the cultures not treated with PDC, maintained under 75% of nitrogen (control condition).

As for `O=C(O)[C@H]1CN[C@H](C(=O)O)C1` (relative stereo) [PDC, L-trans-pyrrolidine-2,4-dicarboxylic acid], the “Survival of TH-positive neurons” value (PDC 100 μM, 20% O2 + 5% CO2 + 75% N2) is “−”. Besides, the “survival rate of dopaminergic neuronal cells” value (PDC 100 μM, atmosphere containing 75 vol % nitrogen) is given as 25.4%.

`[Xe]` [Xe, xenon]: the “Survival of TH-positive neurons” value (PDC 100 μM, 20% O2 + 5% CO2 + 75% Xe) is reported as “++” and the “Survival of TH-positive neurons” value (no PDC (Control group II), 20% O2 + 5% CO2 + 75% Xe) was “+++”. Moreover, the “survival of dopaminergic neurons treated with PDC, 75% xenon compared with 75% nitrogen” value (PDC 100 μM, Trolox present or absent, p<0.05 vs corresponding cultures under 75% nitrogen) was “increase in the survival”. Besides, the “survival rate of dopaminergic neuronal cells” value (PDC 100 μM, nitrogen replaced with xenon (75%)) is recorded as 57.7%.

As to `Cc1c(C)c2c(c(C)c1O)CCC(C)(C(=O)O)O2` (stereo not drawn) [Trolox, 6-hydroxy-2,5,7,8-tetramethylchromane-2-carboxylic acid], the “Survival of TH-positive neurons” value (PDC 100 μM + Trolox 0.1 μM, 75% N2) is reported as “−”; the “Survival of TH-positive neurons” value (PDC 100 μM + Trolox 0.3 μM, 75% N2) is on record as “−”; the “Survival of TH-positive neurons” value (PDC 100 μM + Trolox 1 μM, 75% N2) is “+”; the “Survival of TH-positive neurons” value (PDC 100 μM + Trolox 10 μM, 75% N2) was “++”. The “Trolox concentration from which a significant protective effect is produced” value (PDC 100 μM, 75% nitrogen, p<0.05 vs cultures exposed only to PDC in the same atmosphere) is not below 1 µM. In addition, the “effect of Trolox applied alone on neuronal survival” value (PDC 100 μM, Trolox 0.1-0.3 μM, atmosphere containing 75% nitrogen) is listed as “no significant effect”.
